{"source": "patent US5055479A", "about": "“Method of treating cachexia” (Sankyo Company, Limited, priority 1988, dated 1991)", "key": {"[1]": {"system": "tumor cells, adenocarcinoma C-12G", "assay": "Improving cachexia and increasing life-span of tumor bearing mice", "type": "in vivo, mouse (CSF1)", "excerpt": "A mouse cachexia model was made by inoculating 6×10^5 viable tumor cells, adenocarcinoma C-12G, subcutaneously into the right axillary region of a CSF1 mouse (8-9 weeks old, female weighing 21-24 g, n=10). The viable tumor cells were counted under a microscope after staining them with 0.4% of trypan blue (Sigma Co.).\nThe growth of this kind of tumor, inoculated subcutaneously, causes a marked Weight loss (the weight losses of mice 16-17 days after tumor inoculation were (4.0-4.5 g), piloerection and depression of emotion and finally death.\nCompound No. 1-19 (hereafter called the test compound) was suspended in saline containing 0.5% CMC (carboxymethyl cellulose) at a concentration of 4 mg/ml. The suspension was administrated orally to mice on days 1-4, 7-11, 14-24 (20 times in total) after the tumor inoculation. The status of the mice, such as weight loss. Piloerection, depression of emotion and increase in life-span, was observed.\nOn the other hand, for a control group of mice, saline solution containing 0.5% of CMC was given orally.\nIn the above, the median survival times were measured in days."}, "[2]": {"system": "plasma lipoprotein lipase", "assay": "Enhancement of plasma lipoprotein lipase activity in mice", "type": "in vivo, mice (Balb/c)", "settings": "9 mg/kg via tail vein, 21 hours later", "method": "Female mice (Balb/c, 10 weeks old, n=6, i.e. the number in each test group was 6) were injected with 9 mg/kg of the test compound (Compound No. 1-19) via the tail vein. Twenty one hours later, the activities of the plasma lipoprotein lipase were determined according to Vlassara's method. [Horm. Metabol. Res., 18, 698-703(1986)].\nActivities of the plasma lipoprotein lipase in control mice receiving physiological saline were expressed as 100 and the relative value is shown in the following Table 5."}, "[3]": {"assay": "Acute toxicity in rats, subcutaneous injection", "settings": "rat, in vivo, sc", "excerpt": "(§1) All of the compounds of formula (I) employed in the present invention have shown low toxicity and high safety, with limited side effects."}, "[4]": {"assay": "Acute toxicity in mice, intraperitoneal injection", "settings": "mouse, in vivo, ip", "excerpt": "as §1"}}}
{"compound": "Cc1nc2ncnn2c2c1CCN2C(C)(C)C", "note": "[Compound 1-19, 8-t-butyl-7,8-dihydro-5-methyl-6H-pyrrolo[3,2-e][1,2,4]triazolo[1,5-a]pyrimidine]", "values": [{"measurement": "Median Survival time", "setting": "[1]; 40 mg/kg/day orally, days 1-4, 7-11, 14-24, control 28.0", "value": 40.5, "unit": "days"}, {"measurement": "Increase in life-span (ILS)", "setting": "[1]; 40 mg/kg/day orally, days 1-4, 7-11, 14-24, vs control", "value": 45, "unit": "%"}, {"measurement": "status of the mice (weight, hair retention and emotion)", "setting": "[1]; oral administration, 20 times in total", "value": "extensive improvements in weight, hair retention and emotion"}, {"measurement": "lipoprotein lipase activity relative to control", "setting": "[2]; of that of the control", "value": 120, "unit": "%"}, {"measurement": "Relative activity of the lipoprotein lipase", "setting": "[2]; saline control = 100, n = 6, mean ± standard deviation, p<0.05 vs saline", "value": "120 ± 10.6"}, {"measurement": "LD50", "setting": "[3]", "value": "≥ 100", "unit": "mg/kg"}]}
{"compound": "Cc1ccc(CN2CCc3c(C)nc4ncnn4c32)cc1", "note": "[Compound 1-48, 7,8-dihydro-5-methyl-8-(4-methylbenzyl)-6H-pyrrolo[3,2-e][1,2,4]triazolo[1,5-a]pyrimidine]", "values": [{"measurement": "LD50", "setting": "[4]", "value": "≥ 300", "unit": "mg/kg"}]}
{"compound": "COc1ccc(CN2CCc3c(C)nc4ncnn4c32)cc1", "note": "[Compound 1-49, 7,8-dihydro-8-(4-methoxybenzyl)-5-methyl-6H-pyrrolo[3,2-e][1,2,4]triazolo[1,5-a]pyrimidine]", "values": [{"measurement": "LD50", "setting": "[4]", "value": "≥ 300", "unit": "mg/kg"}]}
{"compound": "Cc1nc2ncnn2c2c1CCN2Cc1ccc(Cl)cc1", "note": "[Compound 1-54, 8-(4-chlorobenzyl)-7,8-dihydro-5-methyl-6H-pyrrolo[3,2-e][1,2,4]triazolo[1,5-a]pyrimidine]", "values": [{"measurement": "LD50", "setting": "[4]", "value": "≥ 300", "unit": "mg/kg"}]}
{"compound": "Cc1nc2ccnn2c2c1CCN2Cc1ccccc1", "note": "[Compound 2-2, 8-benzyl-7,8-dihydro-5-methyl-6H-pyrazolo[1,5-a]pyrrolo[3,2-e]pyrimidine]", "values": [{"measurement": "LD50", "setting": "[4]", "value": "≥ 300", "unit": "mg/kg"}]}
